The source of these data is patent US20170049781A1, “HSP90 INHIBITOR COMBINATIONS” (Novartis AG, priority 2008, published 2017).

Type in all cases: cell-based, human
Assay [1] has as its system phosphorylated AKT (P-AKT(S473), T308). Briefly: Western blot of AKT phosphorylation in MDA-MB-231 breast tumor cells. The conditions noted are these: MDA-MB-231 cells. How it is done:
(§1) Two cancer derived cell lines are used (BT474 and MDA-MB-231). These are human breast carcinoma cell lines. The cell lines are commercially available from American Type Culture Collection (ATCC). BT474 cells are maintained in Hybri-Care medium (ATCC) supplemented with 10% v/v fetal calf serum and 2 mM L-glutamine. MDB-MB-231 cells are grown in RPMI 1640 medium (Animed, Allschwil, Switzerland) supplemented with 10% v/v fetal calf serum and 2 mM L-glutamine. The media are supplemented with 100 microgramm/ml penicillin/streptomycin and cells are maintained at 37° C. in 5% CO2.
(§2) After division and medium change, cells from stock culture are seeded at a density of 3.3×10^4 cells/cm^2 (BT474) and 1.2×10^4 cells/cm^2 (MDB-MB-231) on cell plates and incubated for 48 hours at 37° C. and 5% CO2 prior to the treatment with DMSO vehicle, 20 nM everolimus (RAD001) and/or various concentrations of AUY922 (compound 1) for 24 hours. To prepare cell lysates culture plates are washed once with ice-cold phosphor buffered saline (PBS) containing 1 mM phenylmethylsulfonyl fluoride (PMSF) and once with ice-cold extraction buffer (50 mM Hepes pH 7.4, 150 mM NaCl, 25 mM beta-glycerophosphate, 25 mM NaF, 5 mM EGTA, 1 mM EDTA, 15 mM PPi, 2 mM sodium orthovanadate, 10 mM sodium molybdate, leupeptin (10 microgramm/ml), aprotinin (10 microgramm/ml), 1 mM DTT and 1 mM PMSF. Cells are extracted in the same buffer, containing 1% NP-40. The extracts are homogenized, cleared by centrifugation, aliquoted and frozen at −80° C. Protein concentration is determined with the BCA Protein Assay (Pierce, Rockford, Ill., USA).
(§3) Twenty micrograms of cell extracts are resolved electrophoretically on 12% denaturing sodium dodecyl sulfate polyacrylamide gels (SDS-PAGE) and transferred to polyvinylidene difluoride filters by wet-blotting (1 hour at 250 mA) and probed overnight at 4° C. with the following primary antibodies:
(§4) anti-phospho-Akt (Ser473) (clone 14-05; 1:2000) obtained from DAKO (Glostrup, Denmark) and diluted in PBS, 0.5% v/v Tween. […]

Assay [2] deals with phosphorylated AKT (P-AKT(S473) and P-AKT(T308)). Briefly: Western blot of AKT phosphorylation in BT474 breast tumor cells. How it is done:
as §1, §2, §3, §4

In another assay the test system is AKT. Briefly: Western blot of AKT levels in MDA-MB-231 breast tumor cells. As to conditions: MDA-MB-231 cells, 100 nM Compound I. How it is done:
as §1
After division and medium change, cells from stock culture are seeded at a density of 3.3×10^4 cells/cm^2 (BT474) and 1.2×10^4 cells/cm^2 (MDB-MB-231) on cell plates and incubated for 48 hours at 37° C. and 5% CO2 prior to the treatment with DMSO vehicle, 20 nM everolimus (RAD001) and/or various concentrations of AUY922 (compound 1) for 24 hours. […]

Molecules are shown by their SMILES.

For the compound `CO[C@H]1C[C@@H]2CC[C@@H](C)[C@@](O)(O2)C(=O)C(=O)N2CCCC[C@H]2C(=O)O[C@H]([C@H](C)C[C@@H]2CC[C@@H](OCCO)[C@H](OC)C2)CC(=O)[C@H](C)/C=C(\C)[C@@H](O)[C@@H](OC)C(=O)[C@H](C)C[C@H](C)/C=C/C=C/C=C/1C` [RAD001, 40-O-(2-hydroxyethyl)-rapamycin], the “levels of phosphorylated AKT (P-AKT(S473)) compared to an untreated control” value in assay [1] (20 nM RAD001, 24 hours) is “increased levels of phosphorylated AKT”. The “phosphorylation of AKT at amino acid residue T308 on addition of RAD001 in the presence of compound I” value in assay [1] (20 nM RAD001 in the presence of 50-100 nM compound I (combination)) is “did not cause increased phosphorylation of AKT”. The “AKT phosphorylation (P-AKT(S473) and P-AKT(T308)) on addition of RAD001 in the presence of compound I” value in assay [2] (BT474 cells, 20 nM RAD001 in the presence of 50-100 nM compound I (combination)) is recorded as “did not cause increase in AKT phosphorylation”. For the same compound, in assay [2] (BT-474 cells, 20 nM RAD001, 24 hours), the “levels of phosphorylated AKT (P-AKT(S473) and P-AKT(T308)) compared to an untreated control” value is recorded as “increased levels of phosphorylated AKT”.
As for `COc1cccc(-c2ccccc2[C@H]2Cc3nc(N)nc(C)c3C(=O)N2)n1` [compound I, (R)-2-amino-7-[2-(6-methoxy-pyridin-2-yl)-phenyl]-4-methyl-7,8-dihydro-6H-pyrido[4,3-d]pyrimidin-5-one], the AKT levels result in the assay with AKT is listed as “slightly decreased”. Besides, in assay [1] (50-100 nM compound I, 24 hours), the “AKT phosphorylation (P-AKT(S473))” value is “diminished”. Moreover, the “AKT phosphorylation (P-AKT(S473) and P-AKT(T308))” value in assay [2] (BT474 cells, 50-100 nM compound I, 24 hours) was “diminished”.
